# Source: patent publication US10681909B2, “Herbicidal triazoles” (FMC Corporation, priority 2014, dated 2020)
# Columns and labels:
# dayflower, VA [1] = assay: Test E postemergence; format: in vivo, Commelina virginica; conditions: scale 0 to 100
# Description: (§1) Seeds of plant species selected from corn (Zea mays), soybean (Glycine max), lambsquarters (Chenopodium album), poinsettia, wild (wild poinsettia, Euphorbia heterophylla), pigweed, palmer (palmer pigweed, Amaranthus palmeri), waterhemp (common waterhemp, Amaranthus rudis), surinam grass (Brachiaria decumbens), crabgrass, large (large crabgrass, Digitaria sanguinalis), crabgrass, Brazilian (Brazilian crabgrass, Digitaria horizontalis), panicum, fall (fall panicum, Panicum dichotomiflorum), foxtail, giant (giant foxtail, Setaria faberii), foxtail, green (green foxtail, Setaria viridis), goosegrass (Eleusine indica), johnsongrass (Sorghum halepense), ragweed (common ragweed, Ambrosia elatior), barnyardgrass (Echinochloa crus-galli), sandbur (southern sandbur, Cenchrus echinatus), arrowleaf sida (Sida rhombifolia), ryegrass, Italian (Italian ryegrass, Lolium multiflorum), dayflower, VA (Virginia dayflower, Commelina virginica), field bindweed (Convolvulus arvensis), cocklebur (common cocklebur, Xanthium strumarium), morningglory (Ipomoea coccinea), nightshade (eastern black nightshade, Solanum ptycanthum), kochia (Kochia scoparia), nutsedge, yellow (yellow nutsedge, Cyperus esculentus), smartweed (ladysthumb smartweed, Polygonum persicaria), velvetleaf (Abutilon theophrasti), horseweed (Conyza canadensis), and beggarticks (hairy beggarticks, Bidens pilosa), were planted into a silt loam soil and treated preemergence with test chemicals formulated in a non-phytotoxic solvent mixture which included a surfactant.
# (§2) At the same time, plants from these crop and weed species and also waterhemp_RES1, (ALS & Triazine resistant common waterhemp, Amaranthus rudis), and waterhemp_RES2, (ALS & HPPD resistant common waterhemp, Amaranthus rudis) were planted in pots containing Sunshine Redi-Earth® planting medium comprising spaghnum peat moss, vermiculite, starter nutrients and dolomitic limestone were treated with postemergence applications of test chemicals formulated in the same manner. Plants ranged in height from 2 to 18 cm for postemergence treatments (1- to 4-leaf stage). Treated plants and controls were maintained in a greenhouse for 14 to 21 d, after which time all species were compared to controls and visually evaluated. Plant response ratings, summarized in Table E, are based on a scale of 0 to 100 where 0 is no effect and 100 is complete control. A dash (-) response means no test result.
# field bindweed [2] = assay: Test E preemergence; format: in vivo, Convolvulus arvensis; conditions: scale 0 to 100
# Description: as §1, §2
# pigweed, palmer [3] = assay: Test E postemergence; format: in vivo, Amaranthus palmeri; conditions: scale 0 to 100
# Description: as §1, §2
# foxtail, green = assay: Test E preemergence; format: in vivo, Setaria viridis; conditions: scale 0 to 100
# Description: as §1, §2
# dayflower, VA [4] = assay: Test E preemergence; format: in vivo, Commelina virginica; conditions: scale 0 to 100
# Description: as §1, §2
# barnyardgrass = assay: Test E postemergence; format: in vivo, Echinochloa crus-galli; conditions: scale 0 to 100
# Description: as §1, §2
# lambsquarters = assay: Test E preemergence; format: in vivo, Chenopodium album; conditions: scale 0 to 100
# Description: as §1, §2
# sandbur = assay: Test E preemergence; format: in vivo, Cenchrus echinatus; conditions: scale 0 to 100
# Description: as §1, §2
# pigweed, palmer [5] = assay: Test E preemergence; format: in vivo, Amaranthus palmeri; conditions: scale 0 to 100
# Description: as §1, §2
# kochia [6] = assay: Test E preemergence; format: in vivo, Kochia scoparia; conditions: scale 0 to 100
# Description: as §1, §2
# goosegrass = assay: Test E preemergence; format: in vivo, Eleusine indica; conditions: scale 0 to 100
# Description: as §1, §2
# kochia [7] = assay: Test E postemergence; format: in vivo, Kochia scoparia; conditions: scale 0 to 100
# Description: as §1, §2
# crabgrass, Brazilian = assay: Test E postemergence; format: in vivo, Digitaria horizontalis; conditions: Brazil, scale 0 to 100
# Description: as §1, §2
# beggarticks = assay: Test E postemergence; format: in vivo, Bidens pilosa; conditions: scale 0 to 100
# Description: as §1, §2
# field bindweed [8] = assay: Test E postemergence; format: in vivo, Convolvulus arvensis; conditions: scale 0 to 100
# Description: as §1, §2
# ragweed = assay: Test E preemergence; format: in vivo, Ambrosia elatior; conditions: scale 0 to 100
# Description: as §1, §2
# waterhemp = assay: Test E postemergence; format: in vivo, Amaranthus rudis; conditions: scale 0 to 100
# Description: as §1, §2
# nightshade = assay: Test E preemergence; format: in vivo, Solanum ptycanthum; conditions: scale 0 to 100
# Description: as §1, §2
# ryegrass, Italian = assay: Test E postemergence; format: in vivo, Lolium multiflorum; conditions: scale 0 to 100
# Description: as §1, §2
smiles,measurement,setting,value
CCOc1nc(-c2ccccc2)nn1Cc1ccnc(C(F)(F)F)c1 [Compound 27],Plant response rating,"dayflower, VA [1]; 16 g ai/ha",50
same,Plant response rating,"dayflower, VA [1]; 31 g ai/ha",60
same,Plant response rating,"dayflower, VA [1]; 62 g ai/ha",70
same,Plant response rating,"dayflower, VA [1]; 125 g ai/ha",75
same,Plant response rating,field bindweed [2]; 16 g ai/ha,0
same,Plant response rating,field bindweed [2]; 31 g ai/ha,0
same,Plant response rating,field bindweed [2]; 62 g ai/ha,60
same,Plant response rating,field bindweed [2]; 125 g ai/ha,90
same,Plant response rating,"pigweed, palmer [3]; 16 g ai/ha",98
same,Plant response rating,"pigweed, palmer [3]; 31 g ai/ha",98
same,Plant response rating,"pigweed, palmer [3]; 62 g ai/ha",100
same,Plant response rating,"pigweed, palmer [3]; 125 g ai/ha",98
same,Plant response rating,"foxtail, green; 16 g ai/ha",75
same,Plant response rating,"foxtail, green; 31 g ai/ha",100
same,Plant response rating,"foxtail, green; 62 g ai/ha",100
same,Plant response rating,"foxtail, green; 125 g ai/ha",100
same,Plant response rating,"dayflower, VA [4]; 16 g ai/ha",10
same,Plant response rating,"dayflower, VA [4]; 31 g ai/ha",10
same,Plant response rating,"dayflower, VA [4]; 62 g ai/ha",10
same,Plant response rating,"dayflower, VA [4]; 125 g ai/ha",50
same,Plant response rating,barnyardgrass; 16 g ai/ha,15
same,Plant response rating,barnyardgrass; 31 g ai/ha,20
same,Plant response rating,barnyardgrass; 62 g ai/ha,30
same,Plant response rating,barnyardgrass; 125 g ai/ha,50
same,Plant response rating,lambsquarters; 16 g ai/ha,80
same,Plant response rating,lambsquarters; 31 g ai/ha,100
same,Plant response rating,lambsquarters; 62 g ai/ha,100
same,Plant response rating,lambsquarters; 125 g ai/ha,100
same,Plant response rating,sandbur; 16 g ai/ha,35
same,Plant response rating,sandbur; 31 g ai/ha,35
same,Plant response rating,sandbur; 62 g ai/ha,75
same,Plant response rating,sandbur; 125 g ai/ha,98
same,Plant response rating,"pigweed, palmer [5]; 16 g ai/ha",85
same,Plant response rating,"pigweed, palmer [5]; 31 g ai/ha",100
same,Plant response rating,"pigweed, palmer [5]; 62 g ai/ha",100
same,Plant response rating,"pigweed, palmer [5]; 125 g ai/ha",100
same,Plant response rating,kochia [6]; 16 g ai/ha,65
same,Plant response rating,kochia [6]; 31 g ai/ha,90
same,Plant response rating,kochia [6]; 62 g ai/ha,100
same,Plant response rating,kochia [6]; 125 g ai/ha,100
same,Plant response rating,goosegrass; 16 g ai/ha,80
same,Plant response rating,goosegrass; 31 g ai/ha,98
same,Plant response rating,goosegrass; 62 g ai/ha,95
same,Plant response rating,goosegrass; 125 g ai/ha,100
same,Plant response rating,kochia [7]; 16 g ai/ha,95
same,Plant response rating,kochia [7]; 31 g ai/ha,100
same,Plant response rating,kochia [7]; 62 g ai/ha,95
same,Plant response rating,kochia [7]; 125 g ai/ha,95
same,Plant response rating,"crabgrass, Brazilian; 16 g ai/ha",20
same,Plant response rating,"crabgrass, Brazilian; 31 g ai/ha",20
same,Plant response rating,"crabgrass, Brazilian; 62 g ai/ha",30
same,Plant response rating,"crabgrass, Brazilian; 125 g ai/ha",40
same,Plant response rating,beggarticks; 16 g ai/ha,40
same,Plant response rating,beggarticks; 31 g ai/ha,50
same,Plant response rating,beggarticks; 62 g ai/ha,50
same,Plant response rating,beggarticks; 125 g ai/ha,55
same,Plant response rating,field bindweed [8]; 16 g ai/ha,50
same,Plant response rating,field bindweed [8]; 31 g ai/ha,60
same,Plant response rating,field bindweed [8]; 62 g ai/ha,70
same,Plant response rating,field bindweed [8]; 125 g ai/ha,80
same,Plant response rating,ragweed; 16 g ai/ha,50
same,Plant response rating,ragweed; 31 g ai/ha,35
same,Plant response rating,ragweed; 62 g ai/ha,90
same,Plant response rating,ragweed; 125 g ai/ha,80
same,Plant response rating,waterhemp; 16 g ai/ha,95
same,Plant response rating,waterhemp; 31 g ai/ha,98
same,Plant response rating,waterhemp; 62 g ai/ha,95
same,Plant response rating,waterhemp; 125 g ai/ha,95
same,Plant response rating,nightshade; 16 g ai/ha,0
same,Plant response rating,nightshade; 31 g ai/ha,50
same,Plant response rating,nightshade; 62 g ai/ha,98
same,Plant response rating,nightshade; 125 g ai/ha,100
same,Plant response rating,"ryegrass, Italian; 16 g ai/ha",20
same,Plant response rating,"ryegrass, Italian; 31 g ai/ha",30
same,Plant response rating,"ryegrass, Italian; 62 g ai/ha",30
same,Plant response rating,"ryegrass, Italian; 125 g ai/ha",40
Fc1ccc(-c2nc(OCC(F)(F)F)n(Cc3ccnc(C(F)(F)F)c3)n2)cc1 [Compound 30],Plant response rating,"dayflower, VA [1]; 31 g ai/ha",60
same,Plant response rating,"dayflower, VA [1]; 62 g ai/ha",70
same,Plant response rating,"dayflower, VA [1]; 125 g ai/ha",80
same,Plant response rating,"dayflower, VA [1]; 250 g ai/ha",90
same,Plant response rating,field bindweed [2]; 31 g ai/ha,10
same,Plant response rating,field bindweed [2]; 62 g ai/ha,25
same,Plant response rating,field bindweed [2]; 125 g ai/ha,65
same,Plant response rating,field bindweed [2]; 250 g ai/ha,75
same,Plant response rating,"pigweed, palmer [3]; 31 g ai/ha",95
same,Plant response rating,"pigweed, palmer [3]; 62 g ai/ha",100
same,Plant response rating,"pigweed, palmer [3]; 125 g ai/ha",100
same,Plant response rating,"pigweed, palmer [3]; 250 g ai/ha",100
same,Plant response rating,"foxtail, green; 31 g ai/ha",95
same,Plant response rating,"foxtail, green; 62 g ai/ha",100
same,Plant response rating,"foxtail, green; 125 g ai/ha",100
same,Plant response rating,"foxtail, green; 250 g ai/ha",100
same,Plant response rating,"dayflower, VA [4]; 31 g ai/ha",5
same,Plant response rating,"dayflower, VA [4]; 62 g ai/ha",10
same,Plant response rating,"dayflower, VA [4]; 125 g ai/ha",25
same,Plant response rating,"dayflower, VA [4]; 250 g ai/ha",65
same,Plant response rating,barnyardgrass; 31 g ai/ha,30
same,Plant response rating,barnyardgrass; 62 g ai/ha,50
same,Plant response rating,barnyardgrass; 125 g ai/ha,90
same,Plant response rating,barnyardgrass; 250 g ai/ha,100
same,Plant response rating,lambsquarters; 31 g ai/ha,90
same,Plant response rating,lambsquarters; 62 g ai/ha,98
same,Plant response rating,lambsquarters; 125 g ai/ha,100
same,Plant response rating,lambsquarters; 250 g ai/ha,100
same,Plant response rating,sandbur; 31 g ai/ha,35
same,Plant response rating,sandbur; 62 g ai/ha,65
same,Plant response rating,sandbur; 125 g ai/ha,90
same,Plant response rating,sandbur; 250 g ai/ha,95
same,Plant response rating,"pigweed, palmer [5]; 31 g ai/ha",90
same,Plant response rating,"pigweed, palmer [5]; 62 g ai/ha",100
same,Plant response rating,"pigweed, palmer [5]; 125 g ai/ha",100
same,Plant response rating,"pigweed, palmer [5]; 250 g ai/ha",100
same,Plant response rating,kochia [6]; 31 g ai/ha,90
same,Plant response rating,kochia [6]; 62 g ai/ha,100
same,Plant response rating,kochia [6]; 125 g ai/ha,100
same,Plant response rating,kochia [6]; 250 g ai/ha,100
same,Plant response rating,goosegrass; 31 g ai/ha,70
same,Plant response rating,goosegrass; 62 g ai/ha,100
same,Plant response rating,goosegrass; 125 g ai/ha,100
same,Plant response rating,goosegrass; 250 g ai/ha,100
same,Plant response rating,kochia [7]; 31 g ai/ha,90
same,Plant response rating,kochia [7]; 62 g ai/ha,90
same,Plant response rating,kochia [7]; 125 g ai/ha,100
same,Plant response rating,kochia [7]; 250 g ai/ha,90
same,Plant response rating,"crabgrass, Brazilian; 31 g ai/ha",35
same,Plant response rating,"crabgrass, Brazilian; 62 g ai/ha",60
same,Plant response rating,"crabgrass, Brazilian; 125 g ai/ha",70
same,Plant response rating,"crabgrass, Brazilian; 250 g ai/ha",85
same,Plant response rating,beggarticks; 31 g ai/ha,50
same,Plant response rating,beggarticks; 62 g ai/ha,60
same,Plant response rating,beggarticks; 125 g ai/ha,70
same,Plant response rating,beggarticks; 250 g ai/ha,75
same,Plant response rating,field bindweed [8]; 31 g ai/ha,70
same,Plant response rating,field bindweed [8]; 62 g ai/ha,70
same,Plant response rating,field bindweed [8]; 125 g ai/ha,75
same,Plant response rating,field bindweed [8]; 250 g ai/ha,70
same,Plant response rating,ragweed; 31 g ai/ha,65
same,Plant response rating,ragweed; 62 g ai/ha,50
same,Plant response rating,ragweed; 125 g ai/ha,70
same,Plant response rating,ragweed; 250 g ai/ha,98
same,Plant response rating,waterhemp; 31 g ai/ha,95
same,Plant response rating,waterhemp; 62 g ai/ha,95
same,Plant response rating,waterhemp; 125 g ai/ha,95
same,Plant response rating,waterhemp; 250 g ai/ha,95
same,Plant response rating,nightshade; 31 g ai/ha,20
same,Plant response rating,nightshade; 62 g ai/ha,80
same,Plant response rating,nightshade; 125 g ai/ha,90
same,Plant response rating,nightshade; 250 g ai/ha,98
same,Plant response rating,"ryegrass, Italian; 31 g ai/ha",25
same,Plant response rating,"ryegrass, Italian; 62 g ai/ha",25
same,Plant response rating,"ryegrass, Italian; 125 g ai/ha",40
same,Plant response rating,"ryegrass, Italian; 250 g ai/ha",50
